Data as given in patent US5137897A, “2-substituted 4-(3-alkyl-5-tert.-butyl-4-hydroxyphenyl) thiazoles, processes for their preparation, pharmaceuticals containing them and their use” (Hoechst Aktiengesllschaft, priority 1989, dated 1992).
Read-outs that look alike come from different tables or passages of the source.

Experiments:
cyclooxygenase = target: T1, cyclooxygenase (Ovis aries, UniProt P05979); experiment: Cyclooxygenase (microsomes) inhibition in vitro; assay type: biochemical, sheep
T1 construct: microsomal cyclooxygenase system (fraction from sheep seminal vesicles, Paesel, Frankfurt, Germany); purchased Paesel, Frankfurt, Germany; host or cells: sheep seminal vesicles (microsomal fraction)
T1 sequence (P05979 25-600): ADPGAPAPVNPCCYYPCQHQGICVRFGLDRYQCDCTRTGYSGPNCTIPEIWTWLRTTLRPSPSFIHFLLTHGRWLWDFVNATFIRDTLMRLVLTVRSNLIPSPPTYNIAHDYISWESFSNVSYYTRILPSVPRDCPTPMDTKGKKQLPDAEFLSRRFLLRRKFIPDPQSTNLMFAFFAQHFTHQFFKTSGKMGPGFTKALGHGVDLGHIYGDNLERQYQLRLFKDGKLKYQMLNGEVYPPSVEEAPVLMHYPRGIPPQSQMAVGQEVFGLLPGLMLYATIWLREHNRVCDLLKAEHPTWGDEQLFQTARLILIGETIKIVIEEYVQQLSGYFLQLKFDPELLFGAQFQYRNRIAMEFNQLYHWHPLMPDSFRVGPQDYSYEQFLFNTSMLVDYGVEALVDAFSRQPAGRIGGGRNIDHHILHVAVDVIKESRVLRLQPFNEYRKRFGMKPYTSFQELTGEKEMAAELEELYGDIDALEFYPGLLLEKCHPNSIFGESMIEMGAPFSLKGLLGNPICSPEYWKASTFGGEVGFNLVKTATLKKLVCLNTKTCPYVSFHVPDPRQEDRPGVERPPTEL
Experimental: (§1) The inhibitory action of the compounds according to the invention is measured on the in vitro arachidonic acid degradation catalyzed by cyclooxycenase and lipoxycenase with the aid of the test systems described in Weithmann and Alpermann, Arzneim.-Forsch. 1985, 35, 947: The cyclooxygenase-catalyzed synthesis of prostaglandins from arachidonic acid is measured in the microsomal cyclooxygenase system (fraction from sheep seminal vesicles, Paesel, Frankfurt, Germany). The coenzyme is adrenaline, whose conversion to adrenochrome is monitored by spectrophotometry at 492 nm. Cis-9-cis-12-linoleic acid is incubated with lipoxygenase (L7127, Sigma, Deisenhofen, Germany) in the lipoxygenase system in vitro and the formation of conjugated double bonds taking place during the oxygenation reaction is monitored optically at 234 nm.
The inhibitor actions, or the inhibitor concentrations necessary for a 50 % inhibition of enzyme activity (IC50 values), have been determined for the following examples according to the invention:
Cyclooxygenase (microsomes)

[1] = test system: Arthus reaction (paw volume increase) in rats; experiment: Reverse passive Arthus reaction; assay type: in vivo, rat (male Sprague-Dawley)
Experimental: b) Reverse passive Arthus reaction
Male Sprague-Dawley rats having a body weight between 100 and 120 g. which had been divided into groups of 8 animals in each case, were used as experimental animals. The animals received a subplantar injection in the left hind paw of 0.5 mg of immunoglobulin in 0.1 ml of a sodium chloride solution 1 hour after oral administration of the test substance. After 4 hours, the Arthus reaction was measured, the percentage change in the paw volume increase compared to that of the control group treated only with vehicle being used as a measuring parameter for the action.

[2] = Free radical scavenger properties (reaction with DPPH); details: reaction with DPPH at 20° C.; determined graphically
Experimental: a) Free radical scavenger properties The testing in this test, which allows conclusions on the antioxidative potential of a substance, was carried out according to Smith et al., Biochem, Pharmacol. 1987. 36, 1456. In this test, the reaction of the compounds according to the invention with the stable free radical 1,1-diphenyl-2-picrylhydrazyl (DPPH) is monitored optically at 20° C. The rate constant K and reaction orders n in Table 5 were determined graphically in the customary manner.

lipoxygenase = target: T2, lipoxygenase (Glycine max, UniProt P08170); experiment: Lipoxygenase (enzyme) inhibition in vitro; assay type: biochemical
T2 construct: purchased Sigma, Deisenhofen, Germany L7127
T2 sequence (P08170 1-839): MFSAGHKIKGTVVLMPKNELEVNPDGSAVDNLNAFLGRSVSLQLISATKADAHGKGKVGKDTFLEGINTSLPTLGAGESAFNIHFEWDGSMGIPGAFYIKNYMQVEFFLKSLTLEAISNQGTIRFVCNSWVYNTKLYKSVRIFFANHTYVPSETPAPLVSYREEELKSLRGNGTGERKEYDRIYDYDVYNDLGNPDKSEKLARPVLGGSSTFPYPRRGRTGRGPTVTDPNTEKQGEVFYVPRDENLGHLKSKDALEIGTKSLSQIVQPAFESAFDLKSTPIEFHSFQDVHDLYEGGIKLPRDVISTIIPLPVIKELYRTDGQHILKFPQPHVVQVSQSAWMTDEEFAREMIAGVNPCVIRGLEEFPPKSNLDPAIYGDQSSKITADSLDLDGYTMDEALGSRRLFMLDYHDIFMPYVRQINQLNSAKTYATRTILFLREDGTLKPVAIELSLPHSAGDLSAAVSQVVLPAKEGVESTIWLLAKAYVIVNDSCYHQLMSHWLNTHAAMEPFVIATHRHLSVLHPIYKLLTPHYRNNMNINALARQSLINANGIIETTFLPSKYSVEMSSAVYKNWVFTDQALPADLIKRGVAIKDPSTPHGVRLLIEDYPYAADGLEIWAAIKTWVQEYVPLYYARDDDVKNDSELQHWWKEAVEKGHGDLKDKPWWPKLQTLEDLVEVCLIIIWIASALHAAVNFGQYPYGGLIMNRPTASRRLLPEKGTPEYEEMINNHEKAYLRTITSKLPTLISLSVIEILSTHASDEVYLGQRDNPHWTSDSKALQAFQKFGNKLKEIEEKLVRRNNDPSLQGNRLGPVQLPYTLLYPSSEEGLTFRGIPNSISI
Experimental: as §1
The inhibitor actions, or the inhibitor concentrations necessary for a 50 % inhibition of enzyme activity (IC50 values), have been determined for the following examples according to the invention: […]

[3] = test system: Adjuvant arthritis (paw volume increase) in rats; experiment: Adjuvant arthritis (method of Pearson), antiinflammatory action on the 5th day; assay type: in vivo, rat (male, Wistar-Lewis strain); details: Rattus norvegicus, 120 h; for ED50: adjuvant arthritis, oral, determined graphically from dose-response curve; for inhibition in vivo at 50 mg/kg: po, 50 mg/kg p.o. once daily, 1st to 5th day, vs untreated control, read-out: Adjuvant arthritis (% inhibition at 50 mg/kg orally)
Experimental: The testing of the compounds of the formula I according to the invention for antiinflammatory action, influence on immunopathological processes, oxygen free radicaldeactivating properties and influence on arachidonic acid metabolism was carried out in the animal models and bioassays described in the following.
1. Adjuvant arthritis for influencing the antiinflammatory action (Table 2)
(§2) The investigations were carried out by the method of Pearson (Arthrit. Rheum. 1959, 2, 44). Male rats of a Wistar-Lewis strain having a body weight between 130 and 200 g were used as experimental animals. The compounds to be tested were administered orally (p. o.) once daily from the 1st to the 5th experimental day in doses of 50 mg per kg of body weight. The animals of one control group received only the vehicle. Each preparation group and the control group comprised 8 animals. The percentage reduction of the paw volume increase compared to that of the untreated control group was used as the criterion of action. The ED50 values were determined graphically from the dose-response curve.
(§3) 4-(3,5-Di-tert.-butyl-4-hydroxyphenyl)-2-methylthiazole i.e. the compound of the formula [drawing 26] according to US-A-4,535,165 mentioned at the beginning, was additionally included in this and the investigation below as a comparison preparation.

[4] = test system: Adjuvant arthritis (Perper modification; paw volume) in rats; experiment: Adjuvant arthritis (Perper modification), paw volume on the 21st day; assay type: in vivo, rat (male, Wistar-Lewis strain); details: Rattus norvegicus, po, 504 h, 1st to 12th day; for inhibition in vivo at 5 mg/kg: 5 mg/kg/day; for inhibition in vivo at 10 mg/kg: 10 mg/kg/day; for inhibition in vivo at 2.5 mg/kg: 2.5 mg/kg/day
[5] = test system: TXB2 formation in mast cell cultures; experiment: Influence on formation of TXB2 in mast cell cultures (rat); assay type: cell-based; details: read-out: TXB2, Residual activity (%)
Experimental: (§4) Moreover, the substances according to the invention were also characterized in cellular leukocyte systems in vitro as inhibitors of arachidonic acid metabolites. To detect the lipoxygenase metabolites, human neutrophils stimlated by calcium ionophore A 23 187 (70 mcmol/1) were incubated with ^14 C-arachidonic acid (81 mcmol/1) and the principal metabolites formed after 15 minutes at 37° C., such as 5-hydroxyeicosatetraenoic acid (5-HETE) and the more strongly proinflammatory leukotriene B4 (LTB4) were determined quantitatively (Tab. 6) with the aid of a radio monitor after separation by HPLC. The influence on the proinflammatory arachiconic acid metabolites thromboxane and LTB4 in cultures prepared from rat mast cells was determined in a corresponding manner (Tab. 7).

[6] = test system: LTB4 formation in mast cell cultures; experiment: Influence on formation of LTB4 in mast cell cultures (rat); assay type: cell-based; details: read-out: LTB4, Residual activity (%)
Experimental: as §4

[7] = test system: 5-HETE formation in human neutrophils; experiment: Influence on 5-HETE formation in human neutrophils; assay type: cell-based; details: Neutrophil
Experimental: as §4

[8] = test system: LTB4 formation in human neutrophils; experiment: Influence on LTB4 formation in human neutrophils; assay type: cell-based; details: Neutrophil
Experimental: as §4

[9] = test system: Adjuvant arthritis (Perper modification; paw volume) in rats; experiment: Adjuvant arthritis (Perper modification), paw volume on the 21st day; assay type: in vivo, rat (male, Wistar-Lewis strain); details: Rattus norvegicus, po, 504 h, 50 mg/kg/day, 1st to 12th day
Experimental: as §2, §3
a) Adjuvant arthritis (Perper modification)
The animals were only treated from the 1st to the 12th experimental day in the experimental arrangement described in item 1. After a treatment-free interval of 9 days, determination of the paw volume of the left and right hind paw was carried out on the 21st day (compare Table 3).

[10] = read-out: % inhibition on the 21st day, Left paw
[11] = read-out: % inhibition on the 21st day, Right paw

Structure (SMILES): CCOC(=O)Cc1nc(-c2cc(C(C)(C)C)c(O)c(C(C)(C)C)c2)cs1 [Example 8]
- inhibition at 100 µM (cyclooxygenase): 75%
- % inhibition (Arthus reaction) ([1]; 60 mg/kg orally): 38%
- reaction order n [2]: 1
- IC50 (lipoxygenase; Lipoxygenase (enzyme)): 50 µM

Structure (SMILES): CN(O)C(=O)CCc1nc(-c2cc(C(C)(C)C)c(O)c(C(C)(C)C)c2)cs1 [Example 19]
- ED50 [3]: 2.5 mg/kg
- inhibition in vivo at 50 mg/kg [3]: 75%
- inhibition in vivo at 5 mg/kg [4, 10]: 59%
- inhibition in vivo at 5 mg/kg [4, 11]: 70%
- inhibition in vivo at 10 mg/kg [4, 10]: 72%
- inhibition in vivo at 10 mg/kg [4, 11]: 85%
- % inhibition (Arthus reaction) ([1]; 50 mg/kg orally): 45%
- reaction order n [2]: < 1

Structure (SMILES): CC(C)(C)c1cc(-c2csc(CCC(=O)O)n2)cc(C(C)(C)C)c1O [Example 3, 3-[4-(3,5-Di-tert.-butyl-4-hydroxyphenyl)thiazol-2-yl]propionic acid]
- ED50 [3]: 0.9 mg/kg
- inhibition in vivo at 50 mg/kg [3]: 84%
- inhibition in vivo at 2.5 mg/kg [4, 10]: 65%
- inhibition in vivo at 2.5 mg/kg [4, 11]: 59%
- inhibition in vivo at 5 mg/kg [4, 10]: 41%
- inhibition in vivo at 5 mg/kg [4, 11]: 74%
- activity at 1 µM ([5]; 1 μM): 113 ± 49%
- activity at 10 µM ([5]; 10 μM): 94 ± 17%
- activity at 100 µM ([5]; 100 μM): 28 ± 10%
- reaction order n [2]: < 1
- activity at 1 µM ([6]; 1 μM): 94 ± 12%
- activity at 10 µM ([6]; 10 μM): 102 ± 9%
- activity at 100 µM ([6]; 100 μM): 78 ± 14%

Structure (SMILES): COC(=O)C=Cc1nc(-c2cc(C(C)(C)C)c(O)c(C(C)(C)C)c2)cs1 [Example 12]
- reaction order n [2]: 1
- inhibition at 50 µM (lipoxygenase; at 50 μM): 73%

Structure (SMILES): CCOC(=O)CCc1nc(-c2cc(C)c(O)c(C(C)(C)C)c2)cs1 [Example 16]
- IC50 (cyclooxygenase): 34 µM
- reaction order n [2]: < 1

Structure (SMILES): CC(C)(C)c1cc(-c2csc(CCC(=O)NO)n2)cc(C(C)(C)C)c1O [Example 7, 3-[4-(3 .-butyl-4-hydroxyphenyl)thiazol-2-yl]propionylhydroxamic acid]
- ED50 [3]: 2.4 mg/kg
- inhibition in vivo at 50 mg/kg [3]: 83%
- inhibition at 100 µM (cyclooxygenase): 75%
- reaction order n [2]: 1
- activity at 0.1 µM ([7]; 0.1 μM, n = 6, read-out: 5-HETE formation, Residual activity (%)): 89.2 ± 12.1%
- activity at 1 µM ([7]; 1 μM, n = 6, read-out: 5-HETE formation, Residual activity (%)): 87 ± 15.6%
- activity at 10 µM ([7]; 10 μM, n = 6, read-out: 5-HETE formation, Residual activity (%)): 39 ± 12.8%
- activity at 100 µM ([7]; 100 μM, n = 9, read-out: 5-HETE formation, Residual activity (%)): 1.7 ± 0.4%
- activity at 0.1 µM ([8]; 0.1 μM, n = 6, read-out: LTB4 formation, Residual activity (%)): 91 ± 13.2%
- activity at 1 µM ([8]; 1 μM, n = 6, read-out: LTB4 formation, Residual activity (%)): 74.3 ± 21.5%
- activity at 10 µM ([8]; 10 μM, n = 6, read-out: LTB4 formation, Residual activity (%)): 35 ± 17%
- activity at 100 µM ([8]; 100 μM, n = 9, read-out: LTB4 formation, Residual activity (%)): 1.7 ± 1.3%

Structure (SMILES): Cc1sc(CCC(=O)O)nc1-c1cc(C(C)(C)C)c(O)c(C(C)(C)C)c1 [Example 15]
- ED50 [3]: 2.6 mg/kg
- inhibition in vivo at 50 mg/kg [3]: 67%
- % inhibition (Arthus reaction) ([1]; 100 mg/kg orally): 47%
- reaction order n [2]: < 1
- inhibition at 100 µM (lipoxygenase; at 100 μM): 78%
- inhibition in vivo at 50 mg/kg [9, 10]: 39%
- inhibition in vivo at 50 mg/kg [9, 11]: 50%
